Source: patent US8003599B2, “Inhibitors of L1 and ADAM10 for the treatment of carcinomas” (Deutsches Krebsforschungszentrum, priority 2004, dated 2011)
Entries after “also recorded” stand apart in the source; their conditions may differ.

Test system: HEK293-hL1 cells
Assay: Haptotactic cell migration assay in Transwell chambers, HEK293-hL1 cells
Assay type: cell-based, human
Settings: fibronectin, 24 h after transient transfection (FIG. 11)
Procedure: (C) Inhibition of haptotactic cell migration in the absence or presence of the indicated mAbs to integrins at a final concentration of 10 μg/ml. FN at 10 μg/ml or BSA for control were coated onto the backside of Transwell chambers. Cells were seeded into the top chamber and allowed to transmigrate for 16 hr at 37° C. The antibody was present during the assay time. Each determination was done in quadruplicate and transmigrated cells were stained from the back of the filter. The dye was eluted from the filter and measured at 595 nm. The amount of dye is proportional to the number of transmigrated cells. Values for the migration on BSA were below 0.25 O.D. units for each cell type.
The haptotactic cell migration assay on fibronectin, laminin or BSA was performed in Transwell chambers (Costar, 6.5 mm diameter, 5 um pore size) and was described in detail elsewhere (Mechtersheimer et al., supra). Transmigrated cells were quantified by staining of the transwell membranes with cristalviolet solution as described (Mechtersheimer at al., supra). The eluted dye was measured at 595 nm in an ELISA reader.

COc1cccc(-c2cc(=O)c3ccccc3o2)c1N [PD59098]
suppression of enhanced (L1-dependent) migration of HEK-293-hL1 wild type cells: same effect; also recorded: could block the L1-dependent migration
